What was measured:
[1] = tested on: day 30 MEPs; assay: EDU incorporation proliferation assay; assay type: cell-based, human; conditions: versus untreated cells
From the text: In a subsequent experiment, […] (EDU) incorporation in day 30 MEPs was used to compare proliferation of FICZ-treated MEPS and control untreated MEPs, EDU is a labeling chemical that intercolates into the DNA of a cell and allows for the explicit tracking of proliferation.

[2] = tested on: AhR (CYP1B1 target gene expression) in iPSCs; assay: Quantitative RT-PCR of AhR target gene CYP1B1 in iPSCs; assay type: cell-based, human
Experimental: RNA was extracted using the RNeasy kit (Qiagen) according to the manufacturer's instructions and DNase treated using the DNA-free kit (Ambion AM1906). Reverse transcription into cDNA was performed using the High Capacity cDNA Reverse Transcription Kit (Applied Biosystems 4368814). Quantitative (real time) PCR amplification of cDNA was performed using Taqman probes for AHR (Hs00169233 ml), CYP1B1 (Hs002382916 sl), HBA (Hs00361191 gl), HBB (Hs00758889 sl), HBG (Hs01629437 sl), vWF (Hs00169795 ml), PF4 (Hs00427220 gl), NF-E2 (Hs00232351 ml) and CD62P (Hs00927900 ml) and run on the Applied Biosystems StepOne machine. […]
To characterize AhR expression and functionality in both undifferentiated iPSCs and directly differentiated MEPs, AhR protein levels were determined via Western blot in these populations. AhR receptor was robustly expressed in day 30 and day 60 MEPs (FIG. 4A). However, AhR protein was not detected by western blotting in iPSC populations, and we postulated that AhR was expressed at extremely low levels in iPSCs, i.e., below the level of detectability with the antibodies used for Western blots. To test this hypothesis, the ability of FICZ to induce a prototypic AhR-target gene, CYPIB1, in iPSCs or, as a positive control, MEPs was assessed by quantitative RT-PCR.

[3] = tested on: AhR; assay: Lentiviral AhR reporter (MMTV-DRE dsRed / luciferase) in MEPs; assay type: cell-based, human; conditions: day 30 MEPs, FICZ increased to 0.4 μM
[4] = tested on: red cell-depleted bone marrow from C57BL/6 mice; assay: MEP production in murine bone marrow culture (FACS); assay type: cell-based, mouse; conditions: 0.2 μM FICZ, 3 days, versus vehicle
Experimental: Representative FACS analysis dot plots of red cell depleted C57B6 bone marrow grown for 3 days in +/−0.2 μM FICZ. 1×10^5 cells were initially treated with CD16/32 Fc receptor block, followed by directly conjugated monoclonal antibodies for the designated markers.
Roughly 10^5 cells were collected, spun, and re-suspended in 0.5% BSA in PBS. Samples were incubated for 30 min at ambient temperature with human antibodies including CD41a-FITC (BD 555466), CD235-PE (BD 555570), CD71-FITC (BD 555536), washed and spun at 3300 rpm for 7 min, and re-suspended in 0.5% BSA in PBS with 1 ug/ml Propidium Iodide. Samples were run on a BD FACScalibur using Cellquest Pro software and analyzed via FloJo 8.7. For ploidy analysis, cells were treated with 1.5% NP-40 (Boston Bioproducts P-872) and 62.5 ug/ml Propidium Iodide in PBS immediately before FACScalibur interrogation. For murine bone marrow, samples were first incubated for 5 min at ambient temperature with murine conjugated antibody CD16/32 (BD 553142) before a 30 min incubation with c-Kit-PE (BD 553355), CD41a-FITC (BD 553848), Ter119-PE (BD 553673). For cell viability assays, 2-3×10 ^5 cells were collected, re-suspended in 8.8 ug/ml Hoecsht 33342 in PBS supplemented with 5% FBS. […] Samples were run on an LSR-II machine with FACSDiva software and analyzed via FloJo 8.7. […]

[5] = In vivo blood cell counts (Hemavet) in normal mice; parameters: species or system mouse
Experimental: (§1) C57B16 mice were injected daily intraperitoneally with FICZ suspended in vegetable oil using a weekly dose escalation scheme (Week 1: 1 mg/kg; Week 2: 2 mg/kg; Week 3: 4 mg/kg). Blood cell counts were assayed by Hemavet quantification of peripheral blood bleeds, at all 3 time points (Day 7, 14, and 21). Following the 3 week time point, mice were sacrificed and livers and spleens harvested for quantitative RT-PCR analyses.
To determine if FICZ treatment or whole animals would affect RBC or platelet production, C57B16 mice were injected daily intraperitoneally with FICZ suspended in vegetable oil using a weekly dose escalation scheme (Week 1: 1 mg/kg; Week 2: 2 mg/kg; Week 3: 4 mg/kg). […] Following the 3 week time point, mice were sacrificed and livers and spleens harvested.

[6] = tested on: AhR (CYP1B1 target gene expression); assay: In vivo CYP1B1 target gene expression in liver and spleen (quantitative RT-PCR); parameters: species or system mouse; conditions: after 3 weeks of FICZ
Experimental: RNA was extracted using the RNeasy kit (Qiagen) according to the manufacturer's instructions and DNase treated using the DNA-free kit (Ambion AM1906). Reverse transcription into cDNA was performed using the High Capacity cDNA Reverse Transcription Kit (Applied Biosystems 4368814). Quantitative (real time) PCR amplification of cDNA was performed using Taqman probes for AHR (Hs00169233 ml), CYP1B1 (Hs002382916 sl), HBA (Hs00361191 gl), HBB (Hs00758889 sl), HBG (Hs01629437 sl), vWF (Hs00169795 ml), PF4 (Hs00427220 gl), NF-E2 (Hs00232351 ml) and CD62P (Hs00927900 ml) and run on the Applied Biosystems StepOne machine. Relative gene expression was normalized to B-actin (Hs99999903 ml).
as §1
To determine if FICZ treatment or whole animals would affect RBC or platelet production, C57B16 mice were injected daily intraperitoneally with FICZ suspended in vegetable oil using a weekly dose escalation scheme (Week 1: 1 mg/kg; Week 2: 2 mg/kg; Week 3: 4 mg/kg). […]

[7] = C57B16 mice, daily i.p. dose escalation

- CYP1B1 expression [2]: statistically significant increases
- DsRed reporter expression [3]: significant increase
- CYP1B1 target gene expression in liver [6]: robust upregulation
- CYP1B1 target gene expression in spleen [6]: robust upregulation
Structure (SMILES): O=Cc1c2c(cc3c1=Nc1ccccc1-3)=Nc1ccccc1-2 [FICZ, 6-formylindolo[3,2-b]carbazole]
- proliferation by EDU incorporation [1]: far more proliferative than untreated cells
- CD41+ Ter119+ MEPs in culture [4]: distinct populations
- red blood cell (RBC) counts [5, 7]: None of the mice in the study showed significant variations
- white blood cell (WBC) counts [5, 7]: None of the mice in the study showed significant variations
- platelet counts ([5]; C57B16 mice, daily i.p., 1, 2, 4 mg/kg weekly escalation, Day 7, 14 and 21, versus mock or vehicle): increased platelet counts
- platelet response ([5]; one mouse immediately exposed to higher doses (4 mg/kg), no week 1 escalation): more immediate and prolific platelet response
